# Measured values as given in publication PMC8579695, “The Stringent Response Inhibits 70S Ribosome Formation in Staphylococcus aureus by Impeding GTPase-Ribosome Interactions” (mBio, 2021).
# Tested on: Era-His association to 30S ribosomes in S. aureus USA300
# Test: In vivo ribosome association of Era-His to 30S in S. aureus cells
# Type: cell-based, Staphylococcus aureus
# Details: USA300 (p)ppGpp-null Δera iTET-era-His; 0.05 or 60 μg/ml mupirocin for 15 min
# Text: Upon induction of the stringent response, cellular levels of (p)ppGpp increase, while concentration of GTP drops ([38]). Having observed decreased association of RA-GTPases to ribosomal subunits in vitro, we wanted to examine the interaction under more physiologically relevant conditions. To investigate RA-GTPases interactions with the ribosome in the bacterial cell, we used an era deletion mutant in a community-acquired methicillin-resistant S. aureus (CA-MRSA) USA300 strain that we had previously constructed ([10]). […] To establish whether induction of the stringent response in bacterial cells leads to a decrease in the association of Era to the 30S subunit, the era mutant was complemented with an Atet-inducible 6×His-tagged version of era using the iTET vector. […] Normalized 30S pools were analyzed for associated Era-His using α-His Western immunoblotting (Fig. 4C). Crude lysates sampled prior to loading on the sucrose gradients were also analyzed to ensure equal loading and equal expression of Era-His between samples (see Fig. S5B). […]
# FIG 4 Association of Era to the 30S subunit is reduced under stringent conditions. […] RNA content was analyzed at an absorbance of 260 nm. […] Ribosomal subunits were separated, and the amount of Era-His associated in each strain was detected using HRP-conjugated α-His antibodies. […]
compound,measurement,value
C/C(=C\C(=O)OCCCCCCCCC(=O)O)C[C@@H]1OC[C@H](C[C@@H]2O[C@H]2[C@@H](C)[C@H](C)O)[C@@H](O)[C@H]1O [mupirocin],"ribosome association of Era-His after treatment, (p)ppGpp-null strain",decrease is not seen
